Values of other authors in patent US9447122B2, “Arginase inhibitors and methods of use thereof” (AstraZeneca AB, priority 2010, dated 2016).

How the values were obtained:
humans = conditions: subcutaneous administration; cited from earlier work
arginase = target: T1, arginase (Homo sapiens, UniProt P78540); conditions: literature; cited from earlier work
T1 sequence (P78540 23-354): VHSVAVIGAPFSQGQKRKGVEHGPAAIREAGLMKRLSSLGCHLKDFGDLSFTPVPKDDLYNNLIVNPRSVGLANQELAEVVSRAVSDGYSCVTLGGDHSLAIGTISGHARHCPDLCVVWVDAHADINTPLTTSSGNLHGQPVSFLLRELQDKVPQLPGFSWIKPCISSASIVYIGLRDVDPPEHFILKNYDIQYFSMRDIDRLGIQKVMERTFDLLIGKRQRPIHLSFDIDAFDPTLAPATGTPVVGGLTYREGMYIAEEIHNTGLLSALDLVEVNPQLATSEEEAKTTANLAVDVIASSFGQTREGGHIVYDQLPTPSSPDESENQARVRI

SMILES: N[C@@H](CSCCB(O)O)C(=O)O [BEC, S-(2-boronoethyl)-L-cysteine]
- vasodilation and circulation (humans): vasodilatory and enhances circulation
- inhibitory potency at pH 7.5 vs pH 9.5 (arginase): much lower at pH 7.5 than at pH 9.5
